Reference: patent US9469653B2, “Pharmaceutical compositions for preventing or treating degenerative brain disease and method of screening the same” (KOREA INSTITUTE OF SCIENCE AND TECHNOLOGY, priority 2011, dated 2016)
Read-outs that look alike come from different tables or passages of the source.

How the values were obtained:
[1] = biological target: T1, human MAO-B enzyme (Homo sapiens (Human), UniProt P27338); test: Screening of MAO-B activity inhibition (Amplex Red monoamine oxidase assay kit, benzylamine substrate); format: biochemical
T1 sequence (P27338 whole entry): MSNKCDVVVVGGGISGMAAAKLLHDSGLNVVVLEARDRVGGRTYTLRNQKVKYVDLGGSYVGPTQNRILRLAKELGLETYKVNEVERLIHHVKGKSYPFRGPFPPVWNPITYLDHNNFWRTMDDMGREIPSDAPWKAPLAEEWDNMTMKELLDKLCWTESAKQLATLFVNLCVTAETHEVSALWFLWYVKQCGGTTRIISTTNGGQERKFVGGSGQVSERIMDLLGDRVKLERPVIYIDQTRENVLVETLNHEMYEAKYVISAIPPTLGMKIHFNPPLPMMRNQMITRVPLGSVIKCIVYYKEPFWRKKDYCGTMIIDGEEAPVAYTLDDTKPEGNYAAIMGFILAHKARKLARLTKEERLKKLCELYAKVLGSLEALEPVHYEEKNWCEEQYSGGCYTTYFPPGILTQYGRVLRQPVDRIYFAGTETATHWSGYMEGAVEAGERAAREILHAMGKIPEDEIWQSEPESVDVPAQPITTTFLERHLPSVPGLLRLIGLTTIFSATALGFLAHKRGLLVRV

[2] = biological target: T1, human MAO-B enzyme; test: as above; format: biochemical; conditions: 10 uM of the synthesized compound, pargyline-corrected
Method: A stock solution was prepared using a human MAO-B enzyme (purchased from Aldrich) and a Amplex® Red monoamine oxidase assay kit according to a preparation manual. The kit includes a 5× reaction buffer, an Amplex® red reagent (1 mg), HRP, DMSO, H2O2, p-tyramine (substrate of MAO-A, B), benzylamine (substrate of MAO-B), clorgiline (inhibitor of MAO-A), and pargyline (inhibitor of MAO-B). Among these reagents in the kit, benzylamine was used as a substrate for MAO-B, and pargyline was used as an MAO-B inhibitor. A solution as overall substrates was prepared as follows. 200 ul of a solution of 1 mg of Amplex® red sufficiently dissolved in 200 ul of DMSO, 100 ul of a mixed solution of HRP and 1 ml of a 1× buffer, 200 ul of a solution of benzylamine dissolved in 1.2 ml of dH2O were added to 9.5 ml of a 1× buffer to reach a total volume of 10 mL, which is sufficient for 100 wells. 0.5 ul of a mixture of MAO-B inhibitor pargyline and 1 ml of dH2O was put into each well. First, the activity of MAO-B was determined using 10 uM of the synthesized compound.
96 wells were injected with positive and negative types, and the wile type. The positive type included only substrate and hydrogen peroxide, and the negative type included only substrate. For the wild type, corresponding wells were injected with the enzyme, substrate, and MAO-B inhibitor, but with no synthesized compound. Afterward, 2 ul of the synthesized compound (1 mM) was added into each well, and the human MAO-B enzyme was put only into the 1st row of wells. 0.5 ug of the human MAO-B was put into each well along with 100 ul of a 1× buffer. The human MAO-B enzyme was put into the 2nd row of the wells along with 0.5 ul of a pargyline, the MAO-B inhibitor. To reduce an experimental error for accuracy, the test was repeated three times for each compound. After 30 minutes, 100 ul of the substrate solution was added into each well in a darkroom. The test was performed in the darkroom due to light sensitivity of the Amplex® reagent. Finally, a total volume of the reaction solution per well reached 200 ul. After about 2 to 3 hours, chromophoric degrees of the samples were measured. A variation in data values for the 1st and 2nd rows of the wells indicates the pure reaction activity of the MAO-B enzyme with the substrate. Using the samples with the synthesized compound the remaining activity of MAO-B after inhibited by the synthesized compound may be determined. This is because the activities of the other enzymes excluding the MAO-B enzyme may be excluded through this method. Compounds with high inhibitory activity at a concentration of 10 uM were screened from among the synthesized compounds at a compound concentration of 10 uM.

[3] = activity assay at 0.001, 0.01, 0.1, 1 and 10 uM

Row | IC50 [1, 3] | Remaining activity of MAO-B (%) [2] | Molecule | IC50 [1]
1 | 2.99 µM | 4.4% | CNc1ccc2nc(-c3cccc(Cl)c3)oc2n1 [Example 5-76, 2-(3-chlorophenyl)-N-methyloxazolo[5,4-b]pyridine-5-amine] | –
2 | 9.86 µM | 22% | CNc1ccc2nc(-c3cccc(F)c3)oc2n1 [Example 5-75, 2-(3-fluorophenyl)-N-methyloxazolo[5,4-b]pyridine-5-amine] | –
3 | 5.08 µM | 24.1% | CN(Cc1ccccc1)c1ccc2nc(-c3ccc(Cl)cc3)oc2n1 [Example 5-68, N-benzyl-2-(4-chlorophenyl)-N-methyloxazolo[5,4-b]pyridine-5-amine] | –
4 | 8.3 µM | 1.8% | c1ccc(-c2nc3ccc(N4CCCCC4)nc3s2)cc1 [Example 5-38, 2-phenyl-5-(piperidine-1-yl)thiazolo[5,4-b]pyridine] | –
5 | 112 µM | 7.7% | Clc1ccccc1-c1nc2ccc(N3CCCC3)nc2o1 [Example 5-32, 2-chlorophenyl-5-(pyrrolidine-1-yl)oxazolo[5,4-b]pyridine] | –
6 | 0.27 µM | 13.8% | Fc1cccc(-c2nc3ccc(N4CCCCC4)nc3o2)c1 [Example 5-40, 2-(3-fluorophenyl)-5-(piperidine-1-yl)oxazolo[5,4-b]pyridine] | –
7 | 10.1 µM | 26.5% | Fc1ccc(-c2nc3ccc(N4CCCCC4)nc3o2)cc1 [Example 5-45, 2-(4-fluorophenyl)-5-(piperidine-1-yl)oxazolo[5,4-b]pyridine] | –
8 | 0.41 µM | 2.31% | c1ccc(-c2nc3ccc(N4CCCC4)nc3o2)cc1 [Example 5-30, 2-phenyl-5-(pyrrolidine-1-yl)oxazolo[5,4-b]pyridine] | –
9 | 1900 µM | 60.8% | c1ccc(CNc2ccc3nc(-c4ccccc4)sc3n2)cc1 [Example 5-58, N-benzyl-2-phenylthiazolo[5,4-b]pyridine-5-amine] | –

Row | Molecule | IC50 [1, 3] | Remaining activity of MAO-B (%) [2] | IC50 [1]
10 | 2-fluorophenyl-5-(pyrrolidine-1-yl)oxazolo[5,4-b]pyridine [Example 5-34] | – | 8.4% | 8.7 µM
